The record followed here is the Kinase Knowledgebase extract (Sharma et al. 2016).

In assay [1] the target is EGFR (human) (UniProt P00533).
Assay [2] deals with EGFR (human) (UniProt P00533). The conditions noted are these: a431.

Sequence of EGFR (human) (P00533 whole entry, looked up): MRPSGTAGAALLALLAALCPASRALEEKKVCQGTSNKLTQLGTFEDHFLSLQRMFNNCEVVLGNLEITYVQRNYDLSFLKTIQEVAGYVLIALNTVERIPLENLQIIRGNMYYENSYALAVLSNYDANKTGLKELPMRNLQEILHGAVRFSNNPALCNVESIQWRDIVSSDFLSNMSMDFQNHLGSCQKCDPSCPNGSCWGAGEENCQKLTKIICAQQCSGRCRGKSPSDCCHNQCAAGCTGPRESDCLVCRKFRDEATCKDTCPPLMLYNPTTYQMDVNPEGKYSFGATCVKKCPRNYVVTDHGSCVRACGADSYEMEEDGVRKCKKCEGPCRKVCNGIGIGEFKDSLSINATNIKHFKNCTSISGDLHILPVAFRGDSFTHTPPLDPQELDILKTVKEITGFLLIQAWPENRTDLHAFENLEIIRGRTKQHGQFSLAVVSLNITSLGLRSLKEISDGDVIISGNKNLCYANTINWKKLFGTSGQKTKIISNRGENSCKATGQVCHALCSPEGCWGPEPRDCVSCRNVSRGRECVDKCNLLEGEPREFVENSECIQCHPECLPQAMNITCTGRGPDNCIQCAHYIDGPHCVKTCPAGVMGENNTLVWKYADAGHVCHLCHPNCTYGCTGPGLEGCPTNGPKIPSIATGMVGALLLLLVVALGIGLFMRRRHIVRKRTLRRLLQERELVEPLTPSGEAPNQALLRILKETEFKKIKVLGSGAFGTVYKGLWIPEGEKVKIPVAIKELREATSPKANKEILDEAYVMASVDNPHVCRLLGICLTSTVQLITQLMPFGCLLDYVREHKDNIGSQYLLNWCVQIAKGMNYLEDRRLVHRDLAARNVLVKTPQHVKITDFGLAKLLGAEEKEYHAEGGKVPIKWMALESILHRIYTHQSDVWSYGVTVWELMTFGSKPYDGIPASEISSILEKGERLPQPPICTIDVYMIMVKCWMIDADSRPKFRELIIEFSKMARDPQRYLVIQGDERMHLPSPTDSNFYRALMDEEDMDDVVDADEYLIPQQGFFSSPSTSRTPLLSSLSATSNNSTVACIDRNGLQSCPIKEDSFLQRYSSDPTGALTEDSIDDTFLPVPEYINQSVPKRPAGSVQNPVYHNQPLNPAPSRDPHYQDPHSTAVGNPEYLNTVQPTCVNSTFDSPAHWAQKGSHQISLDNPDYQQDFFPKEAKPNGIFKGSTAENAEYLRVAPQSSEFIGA

As for `O=C(C1CC1)N1CCN(CC(O)Cn2ccc(-c3ccc4ncnc(Nc5ccc(OCc6cccc(F)c6)c(Cl)c5)c4c3)c2)CC1` (configuration not stated), the IC50 against EGFR (human) [1] stood at 0.197 µM; at EGFR (human) [2] it was 1.09 µM. Regarding `CS(=O)(=O)CCn1ccc(-c2ccc3ncnc(Nc4ccc(OCc5cccc(F)c5)c(Cl)c4)c3c2)c1`, at EGFR (human) [2], the IC50 amounted to 0.647 µM.

Turning to `O=S1(=O)CCC(CNCc2ccn(-c3ccc4ncnc(Nc5ccc(OCc6cccc(F)c6)c(Cl)c5)c4c3)c2)CC1`, the IC50 against EGFR (human) [2] worked out at 0.49 µM. On the same count and under the same terms, the value for `Fc1cccc(COc2ccc(Nc3ncnc4ccc(-c5ccn(Cc6ccccn6)c5)cc34)cc2Cl)c1` was 0.889 µM. For `CN1CCN(CC(O)Cn2ccc(-c3ccc4ncnc(Nc5ccc(OCc6cccc(F)c6)c(Cl)c5)c4c3)c2)CC1` (configuration not stated), the IC50 at EGFR (human) [1] amounted to 0.036 µM; on EGFR (human) [2] it was 0.084 µM. The like results for `CN1CCN(CCNC(=O)c2cn(-c3ccc4ncnc(Nc5ccc(OCc6cccc(F)c6)c(Cl)c5)c4c3)cc2CCO)CC1` were, in that order, 0.0075 µM and 0.01 µM. For the molecule `Fc1ccc(Nc2ncnc3ccc(-c4ccc[nH]4)cc23)cc1Cl`, the IC50 at EGFR (human) [1] was determined as 0.011 µM; at EGFR (human) [2], 0.021 µM. The like results for `Fc1cccc(COc2ccc(Nc3ncnc4ccc(-n5cc(CNCCN6CCCC6)c(C(F)(F)F)c5)cc34)cc2Cl)c1` were, in that order, 0.055 µM and 1.04 µM.

For `Fc1cccc(COc2ccc(Nc3ncnc4ccc(-c5ccn(CCCN6CCN(c7cccc(Cl)c7)CC6)c5)cc34)cc2Cl)c1`, the values for the IC50 at EGFR (human) [1] and against EGFR (human) [2] were 0.032 µM and 0.29 µM, respectively. In the same order, the values of `O=C(c1cn(-c2ccc3ncnc(Nc4ccc(OCc5ccccn5)c(Cl)c4)c3c2)cc1CCO)N1CCOCC1` are 0.049 µM and 0.05 µM. `OC(CN1CC[C@@H](O)C1)Cn1ccc(-c2ccc3ncnc(Nc4ccc(OCc5cccc(F)c5)c(Cl)c4)c3c2)c1` (some centres not stated) returned an IC50 at EGFR (human) [2] of 0.36 µM. Take `OC(CN1CCCCC1)Cn1ccc(-c2ccc3ncnc(Nc4ccc(OCc5cccc(F)c5)c(Cl)c4)c3c2)c1` (configuration not stated): the figures for the IC50 against EGFR (human) [1] and against EGFR (human) [2] were 0.021 µM and 0.45 µM, respectively.

As for `CC(=O)NC1CCN(CC(O)Cn2ccc(-c3ccc4ncnc(Nc5ccc(OCc6cccc(F)c6)c(Cl)c5)c4c3)c2)CC1` (configuration not stated), the IC50 stood at 0.001 µM on EGFR (human) [1] and 1.28 µM against EGFR (human) [2]. The like results for `CS(=O)(=O)CCNCc1cn(-c2ccc3ncnc(Nc4ccc(OCc5cccc(F)c5)c(Cl)c4)c3c2)cc1C(F)(F)F` were, in that order, 0.016 µM and 0.83 µM. The like results for `O[C@@H](CN1CCOCC1)Cn1ccc(-c2ccc3ncnc(Nc4ccc5c(cnn5Cc5cccc(F)c5)c4)c3c2)c1` were, in that order, 0.008 µM and 0.733 µM. As to `Fc1cccc(COc2ccc(Nc3ncnc4ccc(-c5ccn(Cc6ccncc6)c5)cc34)cc2Cl)c1`, the IC50 against EGFR (human) [1] turned out to be 0.08 µM; against EGFR (human) [2] it was 0.049 µM. The like results for `O=C(Cn1ccc(-c2ccc3ncnc(Nc4ccc(OCc5cccc(F)c5)c(Cl)c4)c3c2)c1)NC1CCS(=O)(=O)CC1` were, in that order, 0.14 µM and 3.71 µM.

On to `OCCn1ccc(-c2ccc3ncnc(Nc4ccc(OCc5cccc(F)c5)c(Cl)c4)c3c2)c1`, for which the IC50 turned out to be 0.052 µM at EGFR (human) [1] and 0.04 µM against EGFR (human) [2]. For the molecule `CN(C)Cc1cn(-c2ccc3ncnc(Nc4ccc(F)c(Cl)c4)c3c2)cc1CCO`, the IC50 against EGFR (human) [2] was 0.15 µM.

As to `CCOC(=O)N1CCN(CC(O)Cn2ccc(-c3ccc4ncnc(Nc5ccc6c(cnn6Cc6cccc(F)c6)c5)c4c3)c2)CC1` (configuration not stated), the IC50 against EGFR (human) [2] amounted to 0.27 µM. Still for that read-out and setting: the value for `Fc1cccc(Cn2ncc3cc(Nc4ncnc5ccc(-c6ccn(CCN7CCCC7)c6)cc45)ccc32)c1` was 0.612 µM; that for `NC(=O)C1CCN(CC(O)Cn2ccc(-c3ccc4ncnc(Nc5ccc(OCc6cccc(F)c6)c(Cl)c5)c4c3)c2)CC1` (configuration not stated) was 0.139 µM.

As to `O=C(NCCCN1CCOCC1)c1cn(-c2ccc3ncnc(Nc4ccc(F)c(Cl)c4)c3c2)cc1CCO`, the IC50 against EGFR (human) [2] was 0.56 µM. The same measure, in the same setting: the value for `O=C1CN(CC(O)Cn2ccc(-c3ccc4ncnc(Nc5ccc(OCc6cccc(F)c6)c(Cl)c5)c4c3)c2)CCN1` (configuration not stated) was 1.22 µM. Same read-out and setting: then `Cc1ccc(Oc2ccc(Nc3ncnc4ccc(-n5cc(CCO)c(C(=O)NCCN6CCCC6)c5)cc34)cc2C)cn1`, with 0.14 µM. As for `Fc1cccc(COc2ccc(Nc3ncnc4ccc(-c5ccn(CCN6CCN(C7CC7)CC6)c5)cc34)cc2Cl)c1`, the IC50 at EGFR (human) [2] was determined as 1.26 µM. The same measure, in the same setting: the value for `OC[C@@H]1CCCN1C[C@@H](O)Cn1ccc(-c2ccc3ncnc(Nc4ccc(OCc5cccc(F)c5)c(Cl)c4)c3c2)c1` was 0.252 µM.

On to `Fc1cccc(Cn2ncc3cc(Nc4ncnc5ccc(-c6ccn(CC7CNCCO7)c6)cc45)ccc32)c1` (configuration not stated), for which, at EGFR (human) [2], the IC50 came to 0.71 µM. The same measure, in the same setting: the value for `OC(CN1CCC(N2CCCCC2)CC1)Cn1ccc(-c2ccc3ncnc(Nc4ccc5c(cnn5Cc5cccc(F)c5)c4)c3c2)c1` (configuration not stated) was 0.521 µM. Same read-out and setting: then `CC(=O)N[C@@H]1CCN(CC(O)Cn2ccc(-c3ccc4ncnc(Nc5ccc(OCc6cccc(F)c6)c(Cl)c5)c4c3)c2)C1` (some centres not stated), with 3.77 µM.

Consider `OC(CNCCN1CCOCC1)Cn1ccc(-c2ccc3ncnc(Nc4ccc5c(cnn5Cc5cccc(F)c5)c4)c3c2)c1` (configuration not stated), for which the IC50 at EGFR (human) [2] was determined as 0.714 µM. Same read-out and setting: the value for `OC(CN1CCSC1)Cn1ccc(-c2ccc3ncnc(Nc4ccc(OCc5cccc(F)c5)c(Cl)c4)c3c2)c1` (configuration not stated) was 0.553 µM. Still for that read-out and setting: then `OCc1cc(-c2ccc3ncnc(Nc4ccc(OCc5cccc(F)c5)c(Cl)c4)c3c2)c[nH]1`, with 4.56 µM. In turn, `O[C@@H](CN1CCC(N2CCCCC2)CC1)Cn1ccc(-c2ccc3ncnc(Nc4ccc(OCc5cccc(F)c5)c(Cl)c4)c3c2)c1` showed an IC50 against EGFR (human) [2] of 0.415 µM.

Molecule `Fc1cccc(Cn2ncc3cc(Nc4ncnc5ccc(-c6ccn(CCCN7CCOCC7)c6)cc45)ccc32)c1` came in with an IC50 at EGFR (human) [2] of 0.426 µM. The same measure, in the same setting: then `OCCc1cn(-c2ccc3ncnc(Nc4ccc(F)c(Cl)c4)c3c2)cc1CN1CCCC1`, with 0.06 µM.

On to `OC1CCN(C[C@H](O)Cn2ccc(-c3ccc4ncnc(Nc5ccc(OCc6cccc(F)c6)c(Cl)c5)c4c3)c2)CC1`, for which, on EGFR (human) [2], the IC50 amounted to 0.66 µM.

Take `CN1CCN(Cc2cn(-c3ccc4ncnc(Nc5ccc(F)c(Cl)c5)c4c3)cc2CCO)CC1`: the IC50 against EGFR (human) [2] was found to be 0.21 µM. Same read-out and setting: the value for `OCCN1CCN(CC(O)Cn2ccc(-c3ccc4ncnc(Nc5ccc(OCc6cccc(F)c6)c(Cl)c5)c4c3)c2)CC1` (configuration not stated) was 0.714 µM; that for `Fc1cccc(COc2ccc(Nc3ncnc4ccc(-c5ccn(CCc6ccccn6)c5)cc34)cc2Cl)c1` was 1.19 µM; that for `CC(=O)N[C@@H]1CCN(CC(O)Cn2ccc(-c3ccc4ncnc(Nc5ccc6c(cnn6Cc6cccc(F)c6)c5)c4c3)c2)C1` (some centres not stated) was 0.35 µM.

On to `OCCC1CCN(CC(O)Cn2ccc(-c3ccc4ncnc(Nc5ccc6c(cnn6Cc6cccc(F)c6)c5)c4c3)c2)CC1` (configuration not stated), for which the IC50 against EGFR (human) [2] is 0.273 µM. Still for that read-out and setting: then `CCOC(=O)C1CCCN(CC(O)Cn2ccc(-c3ccc4ncnc(Nc5ccc(OCc6cccc(F)c6)c(Cl)c5)c4c3)c2)C1` (configuration not stated), with 1.7 µM; and `Fc1cccc(COc2ccc(Nc3ncnc4ccc(-c5ccn(CCN6CCC(N7CCCCC7)CC6)c5)cc34)cc2Cl)c1`, with 0.443 µM. On the same count and under the same terms, the value for `Fc1cccc(COc2ccc(Nc3ncnc4ccc(-c5ccn(C[C@H]6CCO6)c5)cc34)cc2Cl)c1` was 0.384 µM. Same read-out and setting: then `COC[C@H](O)Cn1ccc(-c2ccc3ncnc(Nc4ccc(OCc5cccc(F)c5)c(Cl)c4)c3c2)c1`, with 0.462 µM; and `Fc1cccc(Cn2ncc3cc(Nc4ncnc5ccc(-c6ccn(CCOC7CCCCO7)c6)cc45)ccc32)c1` (configuration not stated), with 0.352 µM. With `O=C(Cn1ccc(-c2ccc3ncnc(Nc4ccc(OCc5cccc(F)c5)c(Cl)c4)c3c2)c1)N1CCS(=O)(=O)CC1`, the IC50 against EGFR (human) [2] was 1.49 µM. The same measure, in the same setting: the value for `CC(Nc1ncnc2ccc(-n3cc(CCO)c(CN4CCCC4)c3)cc12)c1ccccc1` (configuration not stated) was 0.13 µM; that for `CC(Nc1ncnc2ccc(-n3cc(CCO)c(CN4CCCCC4)c3)cc12)c1ccccc1` (configuration not stated) was 0.56 µM; that for `Fc1cccc(COc2ccc(Nc3ncnc4ccc(-c5ccn(CCN6CCCCC6)c5)cc34)cc2Cl)c1` was 2.86 µM.

With `O=S1(=O)CCC(NCC(O)Cn2ccc(-c3ccc4ncnc(Nc5ccc6c(cnn6Cc6cccc(F)c6)c5)c4c3)c2)CC1` (configuration not stated), the IC50 against EGFR (human) [2] turned out to be 0.922 µM. The same measure, in the same setting: the value for `CC(Nc1ncnc2ccc(-n3cc(CCO)c(C(=O)N4CCOCC4)c3)cc12)c1ccccc1` (configuration not stated) was 0.14 µM. Same read-out and setting: the value for `OCCN1CCN(CC(O)Cn2ccc(-c3ccc4ncnc(Nc5ccc6c(cnn6Cc6cccc(F)c6)c5)c4c3)c2)CC1` (configuration not stated) was 0.459 µM. Still for that read-out and setting: then `CS(=O)(=O)N1CCN(CC(O)Cn2ccc(-c3ccc4ncnc(Nc5ccc(OCc6cccc(F)c6)c(Cl)c5)c4c3)c2)CC1` (configuration not stated), with 1.18 µM; and `O=S1(=O)CCN(CC(O)Cn2ccc(-c3ccc4ncnc(Nc5ccc(OCc6cccc(F)c6)c(Cl)c5)c4c3)c2)CC1` (configuration not stated), with 1.46 µM. Molecule `COCCNCC(O)Cn1ccc(-c2ccc3ncnc(Nc4ccc5c(cnn5Cc5cccc(F)c5)c4)c3c2)c1` (configuration not stated) yielded an IC50 against EGFR (human) [2] of 0.582 µM. Same read-out and setting: then `O=C(Cn1ccc(-c2ccc3ncnc(Nc4ccc(OCc5cccc(F)c5)c(Cl)c4)c3c2)c1)N1CCC(N2CCOCC2)CC1`, with 0.853 µM; and `OC1CCN(C[C@@H](O)Cn2ccc(-c3ccc4ncnc(Nc5ccc(OCc6cccc(F)c6)c(Cl)c5)c4c3)c2)CC1`, with 1.36 µM.

In turn, `O=C(Cn1ccc(-c2ccc3ncnc(Nc4ccc(OCc5cccc(F)c5)c(Cl)c4)c3c2)c1)N1CCSC1` returned an IC50 against EGFR (human) [2] of 0.5 µM.

`CCOC(=O)C1CCN(C(=O)Cn2ccc(-c3ccc4ncnc(Nc5ccc(OCc6cccc(F)c6)c(Cl)c5)c4c3)c2)CC1` registered an IC50 on EGFR (human) [2] of 3.32 µM.

On to `O=S1(=O)CCC(NCC(O)Cn2ccc(-c3ccc4ncnc(Nc5ccc(OCc6cccc(F)c6)c(Cl)c5)c4c3)c2)CC1` (configuration not stated), for which the IC50 against EGFR (human) [2] worked out at 0.468 µM. The same measure, in the same setting: then `OCCc1cn(-c2ccc3ncnc(Nc4ccc(F)c(Cl)c4)c3c2)cc1CN1CCCCC1`, with 0.22 µM. In the case of `OC(CN1CC[C@@H](F)C1)Cn1ccc(-c2ccc3ncnc(Nc4ccc(OCc5cccc(F)c5)c(Cl)c4)c3c2)c1` (some centres not stated), on EGFR (human) [2], the IC50 is 0.682 µM. Still for that read-out and setting: then `CCOC(=O)C1CCN(CC(O)Cn2ccc(-c3ccc4ncnc(Nc5ccc(OCc6cccc(F)c6)c(Cl)c5)c4c3)c2)CC1` (configuration not stated), with 2 µM. On the same count and under the same terms, the value for `O=C(Cn1ccc(-c2ccc3ncnc(Nc4ccc(OCc5cccc(F)c5)c(Cl)c4)c3c2)c1)N1CCCC1` was 0.481 µM; that for `O[C@@H](CNC1CC1)Cn1ccc(-c2ccc3ncnc(Nc4ccc(OCc5cccc(F)c5)c(Cl)c4)c3c2)c1` was 0.708 µM. `O=C(c1cn(-c2ccc3ncnc(Nc4ccc(OCc5ccccn5)c(Cl)c4)c3c2)cc1CCO)N1CCC(N2CCCCC2)CC1`: the IC50 at EGFR (human) [1] is 0.105 µM.
